“Also recorded” adds a separate entry of the source.
What was measured:
[1] = Optical absorbance titration of chlorophyllin with acridine orange; assay type: binding; details: AO:chlorophyllin ratio between 0.1 and 30
Text: The invention is not limited to the use of xanthines as interceptor molecules. For example, chlorophyllin and porphyrins may be used as a binding agent to intercalator molecules. FIG. 2-3 shoes the optical absorbance spectra titrating cholorphyllin with increasing concentraitons of acridine orange. The selected spectra denoting important transitions within the titration series are denoted by the bold lines. At AO:chlorophyllin ratio between 0.1 and 30, prevalent peaks occur at λabs of 415 nm for chlorophyllin, 475 nm, and 492 nm. These later peaks correspond to the prevalent absorbance peaks found at concentrations of AO at 10 μM and higher concentrations. […] Thus, other compounds may be used as interceptors such as, but not limited to porphyrins, purines, pyrimidines, polynucleotides and uric acid.

[2] = Absorbance binding spectra of doxorubicin titrated with caffeine or chlorophyllin; details: 10 μM doxorubicin
[3] = tested on: Drosophila salivary gland polytene chromosome; test: Removal of DNA binding stains from polytene chromosome bands by xanthine wash; design: species or system Drosophila melagaster; details: for Re-staining following Xanthine Exposure / Staining before Xanthine Exposure: 1 mM stain, 30 minutes; for Degree of Stain Removal, Exposure to AM (100 mM) / Degree of Stain Removal, Exposure to CAF (100 mM): 15 minute wash, static
Method: In another implementation, giant polytene chromosomes were prepared by the squash technique from the salivary gland of Drosophila melagaster larva The salivary gland was placed on a microscope slide, squashed with a glass cover slide, fixed with acidic acid, rinsed with distilled water, and allowed to dry (kindly provided by Linda Chadwell, UTHSCSA-IBT). Three known DNA intercalators, ethidium bromide (98% purity, Aldrich Chemical Company, Milwaukee, Wis.), doxorubicin (98%, Sigma Chemnical Company, St. Louis, Mo.), and acridine orange plus the minor groove binding DNA stain Hoechst 33258 (98%, ACROS Chemical Company, NJ) were prepared in distilled water at a concentration of 1 mM (for chemical structures see FIG. 4-1, where acridine orange (3,6-bis [dimethylamino] acridine) is shown in Panel A, ethidium bromide is shown in Panel B, doxorubicin is shown in Panel C, Hoechst 33258 is shown in Panel D). The slides with prepared chromosomes were immersed in these stains for a period of 30 minutes, rinsed with distilled water, and dried at room temperature. Fluorescence microscopic analysis was conducted at λex 360 nm and photomicrographs were conducted on a Zeiss Model 63 Microscope with a xenon source fluorescent emitter. Photomicrographs were taken using Kodak Gold 35 mm ASA 1600 speed film noting the position of one individual chromosome on the slide. The stained slides were then subjected to 100 mM caffeine or 100 mM aminophylline under static conditions for a period of 15 minutes, rinsed with distilled water, then allowed to dry at room temperature. The presence of the same individual unstained chromosome in the field was confirmed by phase contrast microscopy. The chromosome was viewed again under fluorescence microscopy at […], and color recorded. Slides were re-stained by immersion in the 1 mM stain for a period of 30 minutes, rinsed with distilled water, and dried at room temperature, and the same individual chromosome was examined by fluorescence microscopy and the fluorescence color recorded.
FIG. 4-3 depicts three photomicrographs of the same Drosophila polytene chromosome: after staining with the DNA minor groove binder Hoechst 33258 dye (Panel A), after rinsing with CAF for 15 minutes (Panel B), and a phase contrast verification of the presence of the chromosome after the CAF rinse (Panel C). Table 4-4 summarizes the results from the experiments using caffeine (CAF) and aminophylline (AM) to remove the following DNA intercalators: doxorubicin, ethidium bromide, acridine orange, and the DNA minor groove binder Hoechst 33258 from their binding sites within polytene chromosomes. […] With all DNA intercalators, the staining of chromosome bands was intense before the xanthine rinses and was again intense following re-staining.

Row | Compound | complexation with acridine orange [1] | binding to doxorubicin [2] | Re-staining following Xanthine Exposure [3] | Staining before Xanthine Exposure [3] | Degree of Stain Removal, Exposure to AM (100 mM) [3] | Degree of Stain Removal, Exposure to CAF (100 mM) [3] | Degree of Stain Removal, Exposure to AM (100 mM) ([3]; listed as doxorubicin)
1 | chlorophyllin | complexes with acridine orange | doxorubicin can be bound to chlorophyllin | – | – | – | – | –
2 | COc1cccc2c1C(=O)c1c(O)c3c(c(O)c1C2=O)C[C@@](O)(C(=O)CO)C[C@@H]3O[C@H]1C[C@H](N)[C@H](O)[C@H](C)O1 [Doxorubicin, doxorubicin] | – | – | Complete | Banding | Moderate | completely removed; also recorded: Complete | only moderately removed
3 | CN1CCN(c2ccc3[nH]c(-c4ccc5[nH]c(-c6ccc(O)cc6)nc5c4)nc3c2)CC1 [Hoechst 33258] | – | – | Complete | Banding | apparently complete removal | apparently complete removal | –

Source: patent US7662767B2, “Polynucleotide intercalator interceptors and inhibitors” (Materials Evolution and Development USA, Inc., priority 2000, dated 2010)
